Where only a bound is given, the exact number is not on record here.

In the case of `NC(=O)CCCCCCCCCCC(Cl)(Cl)C(=O)O`, the melting point – broadly, the temperature of the solid-liquid transition – was in the range of 93 to 94 °C. Turning to `CC(=O)Nc1c(C(=O)c2ccoc2)[nH]c2cc(Cl)ccc12`, the melting point is 217 to 219 °C. The value for `COc1ccc(Cn2nc(C3CCN(CCc4c(C)nc5n(c4=O)CCS5)CC3)c3ccc(F)cc32)cc1` was 146 °C; that for `CCOC(=O)C(NC(=O)c1ccc(C)c(F)c1)C(=O)OCC` was 102 to 103 °C; that for `CC(=O)Nc1c(S(N)(=O)=O)cc(C(=O)O)c(Nc2ccccc2)c1NCc1ccco1` was 250 °C. On to `O=C(Nc1ccc(Cl)c(Cl)c1)NS(=O)(=O)c1ccccc1`, for which the melting point was in the range of 194 to 195 °C. The molecule `O=C(NCCO)c1cccc(-c2cccc3nn(Cc4cccc(F)c4)cc23)c1` displayed a melting point of 187 to 188 °C.

The molecule `O=C1c2ccccc2C(=S)N1C1CC=CCC1` (centres undefined) returned a melting point of 93 °C. `CCN(CCOc1cccc2ccccc12)c1ccc(C(=O)O)cc1`: the melting point is 205 to 206 °C. `O=S1CCN(c2nc3c(-c4nc(C5CC5)no4)ncn3c3ccccc23)CC1`: the melting point fell in the range of 293 to 294 °C. To `O=C1NC(=S)SC1=Cc1ccc2c(c1)N(OCc1ccc(Cl)c(Cl)c1)C(=O)CO2` belongs more than 300 °C; to `O=C(CCCCCCn1ccc2ccc(NC(=O)OC3CCCC3)cc21)NS(=O)(=O)c1ccccc1`, 74 to 76 °C.

In turn, `CC12CC(CCCCCO)C3c4ccc(O)cc4CCC3C1CCC2O` (centres undefined) gave a melting point of 152 °C. The value for `Nc1ccc(/C=C/c2c(F)cccc2F)cc1` was 74 to 75 °C; that for `COCc1nc(C(C)(C)O)c(C(=O)OCc2oc(=O)oc2C)n1Cc1ccc(-c2ccccc2-c2nnn[nH]2)cc1` was 138 to 140 °C; that for `COc1cc2c(c3c1OC(C)(C)C3)C(c1cccc(C(=O)NC3CCNC3=O)c1)=NC(C)(C)C2` (centres undefined) was 191 to 193 °C. Molecule `CCC(C)(C)c1ccc(OCCCCNC(=O)CS(=O)(=O)c2ccc([N+](=O)[O-])cc2)c(C(C)(C)CC)c1` displayed a melting point of 36 to 37 °C.

`O=C(O)c1cccc(-c2nc(-c3ccc(F)c(F)c3)cs2)c1` gave a melting point of 255 to 256 °C.

`Clc1cccc(-c2ccc(Cl)nn2)c1` had a melting point of 155 to 157 °C.

Consider `O=[N+]([O-])c1ccnc(-c2cc(C(F)(F)F)ccc2F)c1`, for which the melting point was 58.1 °C. In turn, `COc1ccc(Cn2c(O)nc3c(-c4ccco4)ncnc32)cc1` showed a melting point of 143 to 144 °C. As for `Nc1sccc1C(=O)c1ccccc1`, the melting point was in the range of 150 to 152 °C. In turn, `COc1ccccc1-c1cc(=O)c2ccccc2o1` displayed a melting point of 97 to 98.5 °C. As to `CC(C)N(C(=O)c1nn(-c2ccc(F)cc2F)c2c1C1CCC2C1)C(C)C` (centres undefined), the melting point was 107 to 109 °C.

Molecule `CNc1nc(C(=O)N(C)Cc2cc(C(F)(F)F)cc(C(F)(F)F)c2)c(-c2ccccc2)c2ccccc12` showed a melting point of 213 to 214 °C. `COc1ccc(Cl)c(Oc2c(COCC(O)CO)nc(N3CCOCC3)nc2NS(=O)(=O)c2ccc(C(C)C)cn2)c1` (racemic): the melting point was found to be 116 °C. As for `COc1ccc(-c2nc(C)c(C(=O)O)s2)cc1`, the melting point lay within 129 to 131 °C.

The molecule `O=C(Nc1ccc(S(=O)(=O)F)cc1)c1cc(Cl)ccc1[N+](=O)[O-]` gave a melting point of 182 to 184 °C.

`COc1ccc2c(=O)c(OS(C)(=O)=O)cn(C)c2c1` had a melting point of 163 °C. `CCOC(=O)c1cccc(-c2ccc(Cl)c3cc(CO)sc23)c1` showed a melting point of 119 to 120 °C. The molecule `Fc1ccc(F)c(CN2CCNc3ncc(I)cc32)c1Cl` returned a melting point of 156 to 157 °C. To `COCc1ccc2cccnc2c1Cl` belongs 78 to 79 °C; to `CC(C)c1nc(COC(N)=O)n(Cc2cnc3ccccc3c2)c1Sc1cc(Cl)cc(Cl)c1`, 214 to 216 °C; to `CC1C(=O)Oc2cc(N3CCOCC3)c(Br)cc21` (centres undefined), 99 to 100 °C. `CCCCOc1nc(N)c2[nH]c(=O)n(CCCNc3cccc(CC(=O)OC)c3)c2n1` displayed a melting point of 208 to 209 °C. For the molecule `CCc1c(C(C)C)cc(C(C)C)c(C(C)O)c1-c1ccc(F)cc1` (single isomer, unassigned; (+)), the melting point lay in the range of 143 to 145 °C. `NC(=O)c1cc2n(c1)CCc1ccccc1C2=O` returned a melting point of 228 °C. `O=C(O)Cc1ccc2c(c1)C(O)c1ccccc1CO2` (centres undefined) registered a melting point of 132 to 134 °C. On to `O=C(Nc1nc(=O)[nH]s1)c1ccc2ccccc2c1`, for which the melting point was more than 250 °C. Consider `COC(=O)c1cc(N2CCC2)c(C(F)(F)F)cc1[N+](=O)[O-]`, for which the melting point was in the range of 127 to 136 °C. `CC1(C(=O)CC#N)CC1` came in with a melting point of 32 to 33 °C. `O=C(OCc1ccccc1)N(CCNC(=O)C(F)(F)F)CCNC(=O)C(F)(F)F` returned a melting point of 131 to 132 °C. The value for `COc1ccc(CN2CC(=O)Nc3ccc(OC)cc3C2=O)c(OC)c1` was 196 °C. To `O=C(O)CNC(=O)c1cccc(NC(=O)C(CS)Cc2ccccc2)c1` (centres undefined) belongs 80 to 83 °C; to `FC(F)(F)c1nnc(S)s1`, 72 to 73 °C; to `O=C(O)CN(CCc1ccccc1)C(=O)[C@@H]1C[C@@H](S)CN1S(=O)(=O)c1ccc2ccccc2c1`, 198 to 200 °C. `CCOC(=O)NC(C)C(=O)c1ccc2cc(OC)ccc2c1` (single isomer, unassigned; (+)) registered a melting point of 96 to 97 °C. `O=C(N[C@H]1CC[C@H](CCN2CCC(c3cccc4c3CCO4)CC2)CC1)c1ccnc2ccccc12`: the melting point was found to be 211 °C. To `CC(C)c1cccc(C(C)C)c1NC(=O)C1c2ccccc2COc2ccc([N+](=O)[O-])cc21` (centres undefined) belongs 186 to 188 °C; to `CCCCCc1c(-c2ccc3c(Br)c(O)ccc3c2)oc2ccccc12`, 75 to 77 °C. Molecule `N#Cc1ccc(C2(n3ccnc3)Cc3ccccc3C2)cc1` gave a melting point of 150 to 152 °C. Consider `CCOC(=O)c1cn(N(C)C=O)c2c(F)c(N3CCN(C)CC3)c(F)cc2c1=O`, for which the melting point came out at 180 °C. Molecule `COc1ccc(CN2C(=O)NC(=O)C2O)cc1OC` (centres undefined) yielded a melting point of 143 to 144 °C. `CC(C)(CCc1ccc(Cl)c(Cl)c1)CC(=O)O` yielded a melting point of 106 to 108 °C. In the case of `Cc1nnc2n1N=C(c1ccc3c(c1)NC(=O)CO3)C(C)(C)S2`, the melting point was 249 to 250 °C. For the molecule `O=C(O)C1=CCCN1C(=O)CCS`, the melting point lay within 94 to 96 °C. Molecule `CCCn1nc(C)c(C(=O)O)c1Cc1ccc(-c2ccccc2-c2nnn[nH]2)cc1` returned a melting point of 240 to 242 °C. The value for `CC(=O)Nc1ccc(N2CCC(N(C)Cc3ccccc3)CC2)cc1` was 147 °C; that for `CCCCCCCCOc1ccc2c(c1OCCCCCCCC)C(=O)c1ccccc1C2=O` was 91 to 94 °C. In turn, `CC(C)Cn1cnc2c(N)nc3c(c21)CCNC3` registered a melting point of 220 to 223 °C. For `FC(F)=Cc1nn(-c2c(Cl)cc(C(F)(F)F)cc2Cl)cc1C1CC1(Br)Br` (centres undefined), the melting point was 71 to 73 °C. The value for `Cc1ccccc1C(=O)Nn1c(=O)c(=O)[nH]c2ccc3ccc([N+](=O)[O-])cc3c21` was more than 230 °C; that for `CC(=O)NC(n1ccnc1)C(Cl)(Cl)CCl` (centres undefined) was 151 to 154 °C. For the molecule `C=C(c1ccc(C(C)C)cc1)c1c(C)c(NC(=O)CC(C)(C)C)c(C)c2c1OCC2`, the melting point was in the range of 188 to 189 °C. The molecule `O=C(Nc1cc(Cl)ccn1)c1ccccn1` yielded a melting point of 118 to 120 °C. The molecule `COC(=O)c1ccc(CN2CC2C#N)c(OC)n1` (centres undefined) displayed a melting point of 156 to 158 °C. `Cc1noc(NS(=O)(=O)c2ccccc2-c2ccc(-c3ncco3)cc2Cn2ccc(-c3ccccc3)n2)c1C` yielded a melting point of 164 to 168 °C.

Molecule `CCOC(=O)C(NC(=O)c1ccccc1Cl)(c1nc(OC)cc(OC)n1)C(C)C` (centres undefined) gave a melting point of 94 to 95 °C. For the molecule `CC(=O)Nc1cccc2c1C(=O)c1c-2n[nH]c1-c1ccccc1`, the melting point is more than 300 °C. `O=C1N(C2CCCCC2)CC(CCl)C1(c1ccccc1)c1ccccc1` (centres undefined) yielded a melting point of 124 to 126 °C.

In turn, `Cc1ccc(S(=O)(=O)OCCc2nc(-c3cccc(Br)c3)oc2C)cc1` had a melting point of 107 to 109 °C. Molecule `Cc1c(-c2ccccc2)n[nH]c1OCN1CCCC1` registered a melting point of 88 °C. The value for `OCC1COC2(CCN(CCc3ccccc3)CC2)O1` (centres undefined) was 96 °C. As to `Cc1ccc2[nH]c3c(N)nn(C)c3c(=O)c2c1`, the melting point was more than 300 °C. Turning to `CCNc1ccc(S(=O)(=O)Nc2onc(C)c2C)cc1`, the melting point came to 123 °C. With `COc1ccc2cc([C@H](C)C(=O)OCCS(=O)(=O)CCO)ccc2c1`, the melting point was in the range of 81 to 84 °C. `COC(C(=O)O)c1nn(-c2ccccc2)c2c1CCC2` (centres undefined) returned a melting point of 106 to 107 °C. For `CC(C)CCCC(C)(C)NC(=O)CN1C(=O)c2ccccc2C1=O`, the melting point lay in the range of 162 to 163 °C. Molecule `O[C@H]1c2cc(OCc3ccncc3)ccc2OC[C@H]1Cc1cccnc1` (relative stereo) had a melting point of 100 to 102 °C. `Cc1sc2c(c1C)C(c1ccc(Cl)cc1)=NC(CC(=O)O)c1nnc(C)n1-2` (centres undefined) returned a melting point of 166 to 177 °C. The value for `O=[N+]([O-])c1cc(O)ccc1F` was 86 to 87 °C; that for `CCOC(=O)c1nn(-c2ccc(Br)cc2)c2c1CCCC2` was 147 °C; that for `O=S(=O)(Nc1cccc2cc(C3=NCCS3)[nH]c12)c1cccs1` was 189 to 190 °C. `COCCN(CCOC)c1ccc(NC(=O)Nc2ccc(Oc3ccncc3)cc2)cc1C(F)(F)F`: the melting point was in the range of 64.5 to 65 °C. To `COc1ccc([N+](=O)[O-])c(C=O)c1OC` belongs 106 to 108 °C. `CCOC(=O)c1cc(O)c2c(n1)c(C)cc1c(O)cc(C(=O)OCC)nc12` had a melting point of 198 to 200 °C. In turn, `CC1(C)CC(O)CC(C)(C)N1OC(=NC1CCCCC1)NC1CCCCC1` gave a melting point of 157 to 161 °C. Regarding `CNC(=O)Nc1nnc(C(F)(F)F)s1`, the melting point fell in the range of 192 to 194 °C. To `CC(C)(O)CN1CCN(c2ccc3nc(-c4cccs4)c(-c4ccncc4)n3n2)CC1` belongs 165 to 168 °C.

(Values after a melting point compilation (Tetko et al.; mined from patent text by program, amines drawn as free bases though some values may be those of a salt).)
